pIC50: −log10 of the molar value.
Legend:
liver microsomes = assay: EPR detection of free-radical intermediates with liver microsomes and NADPH (anaerobic); type: biochemical; details: NADPH, potassium phosphate buffer
Method: No free-radical intermediates were detected in the absence of enzyme or substrates.
Melting points are determined on a Thomas-Hoover melting point apparatus at a heating rate of 2° C./min. Thin-layer chromatography was performed on silica gel plates (Brinkmann Instrument Inc.). Solvent systems were (A) EtOAc-acetone (4:1), (B) CHCl3 -MeOH (9:1) and (C) Cifferri, the organic phase of the mixture EtOAc-MeOH-H2 O (20:1:20). High-performance liquid chromatography was carried out on a Varian Model 5020 gradient liquid chromatograph equipped with a CD-111L chromatography data system and fitted with a Varian reversed-phase C18 column with the following solvent systems: I, CH3 CN-5 mM NH4 OAc buffer, pH 6.4 (68:32 isocratic), flow rate 1.5 mL/min; II, 65-95% water-methanol gradient for 70 min, 1 mL/min; III, 10-90% H2 O-MeOH gradient for 120 min, 1 mL/min, with UV-visible variable- and fixed-wavelength dual detectors at 254, 440, 470 and 520 nm. IR spectra were obtained on a Perkin-Elmer Model 237 Infra Cord with KBr micropellets or in chloroform solutions. UV-visible spectra were obtained on a Gilford 250 spectrophorometer, which, with the addition of a base-line reference compensator (Analog Multiplexer 5053) and thermoprogrammer, auto four cell programmer and thermoelectric cell holder 2577, were used to obtain thermal denaturation curves. Specific rotation values were determined in chloroform solutions with a Cary 60 spectropolarimeter. NMR spectra were obtained in a JEOL FQ-90 MHz spectrometer equipped with Fourier transform. EPR spectra analyses were recorded in a Varian E-9 EPR spectrometer. All elemental analyses were within ±0.4%.

[1] = biological target: T1, NADPH cytochrome P-450 reductase (rat liver microsomes) (Rattus norvegicus, UniProt P00388); assay: Stimulation of NADPH oxidation in rat hepatic microsomal incubations; details: for NADPH oxid: 340 nm, 37° C., phenobarbital induced microsomes, mean ± standard error of triplicate, basal 9.11 ± 0.30; for percentage stimulation of NADPH oxidation over basal rate: (drug-stimulated rate - basal rate)/basal rate × 100
T1 sequence (P00388 1-678): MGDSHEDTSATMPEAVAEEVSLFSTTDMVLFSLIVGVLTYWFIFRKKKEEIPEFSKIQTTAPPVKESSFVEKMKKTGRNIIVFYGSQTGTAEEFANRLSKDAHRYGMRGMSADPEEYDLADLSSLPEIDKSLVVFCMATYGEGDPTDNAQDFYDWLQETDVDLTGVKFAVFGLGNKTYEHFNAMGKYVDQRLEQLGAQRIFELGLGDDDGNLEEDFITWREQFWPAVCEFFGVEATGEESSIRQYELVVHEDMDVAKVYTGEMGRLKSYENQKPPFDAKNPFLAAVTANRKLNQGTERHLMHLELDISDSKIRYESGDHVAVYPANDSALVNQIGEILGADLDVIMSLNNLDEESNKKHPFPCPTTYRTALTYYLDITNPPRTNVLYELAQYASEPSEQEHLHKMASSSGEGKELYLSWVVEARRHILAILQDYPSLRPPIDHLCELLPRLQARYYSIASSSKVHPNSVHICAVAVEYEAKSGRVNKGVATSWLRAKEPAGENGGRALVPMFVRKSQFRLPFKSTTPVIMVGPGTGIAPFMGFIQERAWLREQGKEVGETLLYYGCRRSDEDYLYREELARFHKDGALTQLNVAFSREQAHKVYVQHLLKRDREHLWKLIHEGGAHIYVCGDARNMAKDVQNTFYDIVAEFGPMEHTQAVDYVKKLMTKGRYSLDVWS

rat hepatic microsomes = assay: Stimulation of adrenochrome formation (superoxide generation) in rat hepatic microsomal incubations; details: for adrenochrome formation: 480 nm, 37° C., no more than 100 μM drug, basal 2.11 ± 0.11; for adrenochrome formation / percentage stimulation of adrenochrome formation over basal rate: no SOD
[2] = tested on: CCRF-CEM human lymphoblastic leukemic cells; assay: In vitro cytotoxicity against CCRF-CEM cells; type: cell-based; details: 48 hr
Method: ^a Human lymphoblastic leukemic cells.
The analogues were tested for their cytotoxicity against tumor cells (time, 48 hr). […] This may be associated with the initial microsomal transformation of the "reverse" analogues to "symmetrical" analogue and/or other alternate bioactive forms (e.g., free-radicals, O2^-), followed by deactivation via formation of conjugates and facile elimination of these from the host. The "reverse" analogues show reduced toxicity in vivo and also the tritiated "reverse" 7a is metabolized in vitro.

P388 cells [3] = assay: Inhibition of RNA synthesis (2-[14C]uridine incorporation) in P388 cells; type: cell-based, murine
Method: (§1) Experiments for inhibition of nucleic acid synthesis in tumor cells in vitro were carried out with P388 tumor cells, details of which were reported by Sengupta et al, J. Med. Chem., 18, 1175 (1975). […] AMD-OZLs inhibit either process with equal activity and with the potency of its metabolite 7-hydroxy-AMD.
^b IC50 (RNA) = concentration of inhibitor in μM required to
cause 50% reduction (in 1 hr) in 2[^14 C]uridine incorporation into
acid precipitable material with use of P388 cells.

P388 cells [4] = assay: Inhibition of DNA synthesis (methyl-[3H]thymidine incorporation) in P388 cells; type: cell-based, murine; details: 50% reduction in 1 hr of methyl-[3H]thymidine incorporation, read-out: IC50 DNA synth
Method: as §1
^c IC50 (DNA) = concentration of inhibitor in μM required to
cause 50% reduction (in 1 hr) in methyl[^3 H]thymidine incorporation
into acid precipitable material with use of P388 cells.

[5] = tested on: P388 lymphocytic leukemia; assay: In vivo antitumor activity against P388 leukemia; design: species or system BDF1 mice
Method: The analogues were tested for their antitumor activities in P388 lymphocytic leukemia in male BDF1 mice. The tumor was implanted intraperitoneally (ip) with 10^6 cells. The drugs were also administered ip once daily on days 1, 5 and 9, beginning 1 day after tumor transplantation. Analogues were tested over a range of doses, but only the optimal nontoxic doses are listed.
^a 10^6 P388 cells implanted ip on day 0 into groups of eight
BDF1 male mice. Drugs administered ip. MST (range), median survival
time in days (range of individual animal deaths); % ILS, percent increase
in life span, calculated 100(T/C - 1), where T and C are median survival
times of treated and control animals; surv, number of surviving mice/tota

B16 melanoma = assay: In vivo antitumor activity against B16 melanoma; design: species or system BDF1 mice
Method: AMD-OZL analogues 9a and 10a were about as active as AMD and 7-hydroxy-AMD. The potencies of these analogues are reduced in comparison to that of AMD; their optimal doses were higher than that of AMD.
^a 0.2 mL of 1:5 (weight/volume) brei of B16 melanoma implanted
ip on day 0 in groups of nine BDF1 mice. Drugs administered ip.
^b MST (range) median survival time in days (range of individual
^c % ILS (surv), percent increase in lifespan (survivors on day

[6] = Maximum tolerated dose (LD10) in tumor-free BDF1 male mice; type: in vivo
Method: (§2) These analogues were also tested in tumor-free BDF1 male mice for determination of their MTD values (Table VIII). The animals (18-22 g) were given a broad range of doses of drugs in 5% dimethyl sulfoxide-saline on days 1, 5 and 9. Drugs were administered ip and the maximum tolerated doses of agents which caused death in only 10% of the tested animals in 21 days (i.e., LD10) were recorded as MTD. […] However, the MED values of 7-hydroxy-AMD and its precursor AMD-OZL 10a are high and are seven to tenfold of the MED values of 4a and 8a. On the basis of these MED values, the therapeutic indices of 8a and 4a are 70 and 96. The therapeutic index of 2a is 13, of 10a 10, and of AMD only 4.
^c MTD (maximum tolerated dose) is the lethal dose
(milligram/kilogram) for 10% normal BDF1 male mice (18-22 g); animal
calculated from a plot of logdose vs. percent mortality.

P388 Leukemia = assay: Minimum effective dose and therapeutic index vs. P388 leukemia; type: in vivo; details: dose giving 45% increase in life span in P388 tumor bearing mice; ip days 1, 5 and 9
Method: as §2
^a Drugs administered ip once on days 1, 5 and 9 starting 1 day after
tumor implantation. Determinations were made from analysis of plotted
^b MED (minimum effective dose) is the dose (milligram/kilogram)
providing an increase in life span of 45% over control in P388 tumor

P388/S = assay: In vivo activity against P388/S (adriamycin sensitive) leukemia, Table VII; design: species or system BDF1 mice
Method: (§3) ^a Male BDF1 mice inoculated ip: 10^6 cells inoculum, day 0.
(§4) Drugs administered in 10% dimethyl sulfoxidesaline on days 1, 5 and 9. %
(§5) ILS = percent increase in life span. Fractions in parentheses = tumorfree
(§6) survivors/total on day 60. P388/S (adriamycin sensitive) and P388/ADR
(§7) (adriamycin resistant) tumors were evaluated in the same experiment with […]

P388/ADR = assay: In vivo activity against P388/adriamycin-resistant leukemia; design: species or system BDF1 mice
Method: as §3, §4, §5, §6, §7

## CCN(CC)C(=O)c1c2nc3c(C(=O)N(CC)CC)c(N)c(O)c(C)c3oc-2c(C)c(=O)c1N [4b, 2,8-Diamino-1,9-bis(diethylcarbamoyl)-7-hydroxy-4,6-dimethyl-3-H-phenoxazine-3-one]
Liver microsomes
  free-radical intermediate detected by EPR: no free-radical intermediates were detectable
[1]
  NADPH oxid: 8.9 ± 0.90 nmol min^-1 (mg of protein)^-1
  percentage stimulation of NADPH oxidation over basal rate: -2%
Rat hepatic microsomes
  adrenochrome formation: 2.13 ± 0.19 nmol min^-1 (mg of protein)^-1
  percentage stimulation of adrenochrome formation over basal rate: +1%

## CCN(CC)C(=O)c1c2nc3c(C(=O)N(CC)CC)ccc(C)c3oc-2c(C)c(=O)c1N [1b]
[1]
  NADPH oxid: 8.9 ± 0.90 nmol min^-1 (mg of protein)^-1
  percentage stimulation of NADPH oxidation over basal rate: -2%
Rat hepatic microsomes
  adrenochrome formation: 2.13 ± 0.19 nmol min^-1 (mg of protein)^-1
  percentage stimulation of adrenochrome formation over basal rate: +1%

## Cc1c2oc3c(C)c(O)cc(C(=O)N[C@@H]4C(=O)N[C@H](C(C)C)C(=O)N5CCC[C@H]5C(=O)N(C)CC(=O)N(C)[C@@H](C(C)C)C(=O)O[C@@H]4C)c3nc-2c(C(=O)N[C@@H]2C(=O)N[C@H](C(C)C)C(=O)N3CCC[C@H]3C(=O)N(C)CC(=O)N(C)[C@@H](C(C)C)C(=O)O[C@@H]2C)c(N)c1=O [2a, 7-hydroxyactinomycin D, reference compound]
[2]
  in vitro (CCRF-CEM) ID50: 1 µM
P388 cells [3]; 50% reduction in 1 hr of 2-[14C]uridine incorporation, read-out: IC50 RNA synth
  pIC50: 5.29
P388 cells [3]; ratio
  IC50 DNA/IC50 RNA: 1.00
P388 cells [4]
  pIC50: 5.29
[5]; P388, at optimal dose
  surv (surviving mice/total mice at 60 days): 0/8
[5]; P388, at optimal dose, 100(T/C - 1)
  % ILS: 136%
[5]; P388, at optimal dose, control 11.0 (9-12)
  MST (range): 26.0 (19-39) days
[5]; P388, ip, days 1, 5 and 9, optimal nontoxic dose
  optimal dose: 1200.0 μg/kg per inj
B16 melanoma; at optimal dose
  % ILS: 52%
  surv (survivors on day 65/total injected): 1/9
B16 melanoma; at optimal dose, control 29 (20-48)
  MST (range): 44 (39-53) days
B16 melanoma; ip, days 1, 5, 9
  optimal dose: 1200 μg/kg per inj
[6]; lethal dose for 10% normal BDF1 male mice, 21 days (LD10), ip days 1, 5 and 9
  MTD (maximum tolerated dose): 3.50 milligram/kilogram
[6]; tumor-free BDF1 male mice
  MTD as fold of the MTD of AMD: about 14 fold
P388 Leukemia
  MED (minimum effective dose): 0.275 milligram/kilogram
[1]
  NADPH oxid: 29.9 ± 1.91 nmol min^-1 (mg of protein)^-1
  percentage stimulation of NADPH oxidation over basal rate: 228%
Rat hepatic microsomes
  adrenochrome formation: 7.29 ± 0.79 nmol min^-1 (mg of protein)^-1
  percentage stimulation of adrenochrome formation over basal rate: 245%
Rat hepatic microsomes; SOD (superoxide dismutase) 5 μg/mL added
  adrenochrome formation in presence of SOD: inhibited

## COc1cccc2c1C(=O)c1c(O)c3c(c(O)c1C2=O)C[C@@](O)(C(=O)CO)C[C@@H]3O[C@H]1C[C@H](N)[C@H](O)[C@H](C)O1 [adriamycin, reference compound]
P388/S; at optimal dose
  P388/S % ILS: 97%
  P388/S tumor-free survivors/total on day 60: 1/8
P388/S; ip, days 1, 5 and 9
  P388/S optimal dose: 3.0 mg/kg
P388/ADR; at optimal dose
  P388/ADR % ILS: 33%
P388/ADR; ip, days 1, 5 and 9
  P388/ADR optimal dose: 3.5 mg/kg

Reference: patent US4680382A, “Analogues of actinomycin D” (priority 1986, dated 1987)
